“Also recorded” adds a separate entry of the source. Marks after values point to notes of the source that are not given here.
Tests used:
Format in all cases: physicochemical
[1] = Production of concentrated Yucca shidegera saponin emulsions in water (content reached); conditions: for Ratio of saponin to emulsified molecule (by mass) / Content (by mass) of molecule in emulsion: Yucca shidegera saponin emulsion in water; for Content (by mass) of molecule in emulsion: mass fraction
Description: (§1) The concentrated emulsions readily re-disperse upon dilution in water to working concentrations of interest. The final concentration of saponin with respect to the organic molecule is easily obtainable at 1:50 or 1:100 w/w, or even less. The shelf life of the concentrated emulsions, either at room temperature (about 25° C.) or at refrigerator temperature (about 4° C.) is at least 1 year, although separation of an emulsion, once stably formed, has not been observed.
mulsions of some aqueous-recalcitrant compounds were prepared in water using Yucca shidegera extracts containing about 12-14% saponin, as an emulsifying agent. The saponin preparations were obtained from Danco Natural Products, Pine Valley, Calif., and are sold under the trade names Pure Yucca (about 7-14% saponin and Yucca Ultra (about 10-11% saponin). These preparations had been filtered by the supplier to remove any fibers which could interfere with the emulsification process. The components were combined as follows, using D-limonene as an example.
(§2) D-limonene (B. F. Goodrich/Kalama Chemicals, Kalama, Wash.) in the amount of 50 grams was added directly to a clean glass container. To this, 1.6 grams of yucca saponin was added. The glass container was covered tightly and agitated vigorously. A poor, partially opaque solution resulted. […] 18.4 grams water was then added such that the total weight of the three components was 70 grams. The mixture was agitated again vigorously in a capped container. A viscous, white and truly opaque emulsion resulted. […] To this, another 30 grams limonene was added while mixing to form 100 g final emulsion. The final concentration of D-limonene in the emulsion was 80% by weight. An additional 10 grams of D-limonene can be to bring the final concentration to 90% by weight.
Likewise, other organic compounds can be emulsified by combining about 50 grams of the organic compound with the fraction of saponin indicated in Table 1 and water in a sufficient amount to produce an emulsion upon mixing of the three components. Following formation of the emulsion, the amount of organic compound can be increased as desired.

[2] = Stability of the saponin emulsions (stable emulsion formed, phase separation, recrystallizing, shelf life); conditions: for formation of a stable emulsion: with yucca saponin and water
Description: as §2, with “vigorously.” for “vigorously. A poor, partially opaque solution resulted.”, “container.” for “container. A viscous, white and truly opaque emulsion resulted.”
(§3) It is worth noting that vanillin is a solid at room termperature. The vanillin emulsion was prepared by first heating vanillin to at least 81° C. in order to melt it, then adding the other components.

[3] = Re-dilution of the concentrated emulsions in water; conditions: concentrated emulsion diluted in water
Description: as §1
Furthermore, no two of the three components were able to form an emulsion on their own under the stated conditions. Emulsions were only possible with all three components.
as §3

Row | Ratio of saponin to emulsified molecule (by mass) [1] | Content (by mass) of molecule in emulsion [1] | Molecule | formation of a stable emulsion [2] | also measured
1 | 1/55 | .534 | O=C(OCc1ccccc1)c1ccccc1 [benzyl benzoate] | – | –
2 | 1/18* | .690 | C=C(C)C1CC=C(C)CC1 (single isomer, unassigned; (+)) [(+) limonene] | – | –
3 | – | – | CC/C=C\CC1C(=O)CCC1CC(=O)OC (stereo not drawn) [methyl jasmonate] | did not form stable emulsions | –
4 | – | – | C=CCc1ccc(O)c(OC)c1 [eugenol] | did not form stable emulsions; also recorded: stable emulsions were not obtained | –
5 | 1/34 | .566 | COc1cc(C=O)ccc1O [vanillin] | – | stability of emulsion without recrystallizing ([2]; room temperature, prepared from melt (>81° C.)): stable at room temperature without recrystallizing
6 | 1/78 | .909 | C=C(C)[C@H]1CC=C(C)CC1 [d-limonene, D-limonene] | stable emulsion | dilution of emulsion in water [3]: readily diluted up to eighty-fold; concentration of organic compound in the emulsion ([1]; stable saponin emulsion in water, two step mixing): 80 % by weight; phase separation of emulsion ([2]; ambient temperature, 50:12:1 D-limonene:water:saponin): will not undergo phase separation for up to two weeks
7 | – | – | COc1cc(/C=C/C=O)ccc1O [coniferaldehyde] | did not form stable emulsions; also recorded: stable emulsions were not obtained | –
8 | – | – | COc1cc(/C=C/C=O)cc(OC)c1O [sinapaldehyde] | did not form stable emulsions; also recorded: stable emulsions were not obtained | –

Row | Molecule | Ratio of saponin to emulsified molecule (by mass) [1] | Content (by mass) of molecule in emulsion [1] | formation of a stable emulsion [2] | also measured
9 | O=CC=Cc1ccccc1 [cinnamaldehyde] | 1/50 | .899 | – | –
10 | cedryl acetate | 1/196 | .794 | – | –
